{
  "source": "paper PMC4721923",
  "about": "(PLoS ONE, 2015)",
  "key": {"[1]": {"system": "p53 in various tumor cell types", "design": "method as in PMID 17653574", "settings": "cited from earlier work"}, "[2]": {"settings": "plasma, intravenous administration, cited from earlier work"}, "myeloma cells": {"system": "myeloma cells", "design": "method as in PMID 17653574, PMID 23380051", "settings": "cited from earlier work"}, "Jurkat cells": {"system": "Jurkat cells", "design": "method as in Hiraoka et al. 50", "settings": "ref Hiraoka et al. 50; cited from earlier work"}, "[3]": {"system": "HaCaT cells (spontaneously immortalized human keratinocytes)", "assay": "Kinetic toxicity assay (crystal violet) on HaCaT cells", "assay_type": "cell-based", "settings": "kinetic assay, 0.1, 1 and 10 μM, 5 days", "procedure": "Depending on the characteristics of the cells, two different assays were performed. For adherently growing cells (HaCaT, HT-29, NCI-H460, SK-MEL-3, MG-63, Capan-1), cytotoxic and cytocidal effects were determined in the crystal violet assay, whereas for loosely adherent cells (LNCaP, SK-ES-1) and cells growing in suspension (HEL 92.1.7, Jurkat, U-937) the MTT-assay was used with minor modifications. In brief, 1.5 · 10^3 (HaCaT, HT-29, NCI-H460, SK-MEL-3, MG-63, Capan-1) or 5 · 10^3 (Jurkat, U-937, HEL92.1.7, LNCaP, SK-ES-1) cells per well were seeded into flat-bottom 96-well plates (Sarstedt, Nümbrecht, Germany). […] In case of the vehicle control and test compounds, the final DMSO concentration amounted to 0.1%. Absorbance was measured at 580 nm in a 96-well plate reader (GENios pro microplate reader, Tecan, Salzburg, Austria). Effects were quantified as previously described for both assays."}, "OCT1": {"target": "T1, OCT1 (Homo sapiens, UniProt O15245)", "T1 construct": "containing the full length SLC22A1 cDNA (NM_003057) encoding the human OCT1 protein; expressed in transfected cells", "T1 sequence (O15245 1-554)": "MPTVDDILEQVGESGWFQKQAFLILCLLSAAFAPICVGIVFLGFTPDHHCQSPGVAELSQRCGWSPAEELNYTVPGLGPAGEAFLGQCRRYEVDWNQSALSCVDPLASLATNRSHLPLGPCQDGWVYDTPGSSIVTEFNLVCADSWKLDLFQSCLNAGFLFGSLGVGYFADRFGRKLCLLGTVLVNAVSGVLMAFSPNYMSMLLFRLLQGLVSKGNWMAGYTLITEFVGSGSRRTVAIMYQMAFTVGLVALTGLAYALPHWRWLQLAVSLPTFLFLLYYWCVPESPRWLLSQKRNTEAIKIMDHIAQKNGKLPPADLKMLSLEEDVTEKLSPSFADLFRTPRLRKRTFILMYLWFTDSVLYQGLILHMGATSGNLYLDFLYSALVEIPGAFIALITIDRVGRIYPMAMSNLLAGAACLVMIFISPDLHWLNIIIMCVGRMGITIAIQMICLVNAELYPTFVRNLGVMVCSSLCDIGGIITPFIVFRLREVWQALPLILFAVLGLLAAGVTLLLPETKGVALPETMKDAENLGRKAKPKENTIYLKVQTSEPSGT", "assay": "Confocal laser scanning microscopy of ASP+ uptake, HEK-OCT1", "assay_type": "cell-based", "settings": "compound 5 15 μM; TPA 200 μM; ASP+ 1 μM", "procedure": "(§1) HEK-Co, HEK-OCT1 and HEK-OCT3 cells were seeded into 8-well μ-Slides (Ibidi, Munich, Germany) (2 · 10^4 cells/well) and allowed to attach for 48 hours. Prior to the staining procedure, the medium was replaced by PBS and the DNA probe Draq5 (5 μM) (Biostatus, Shepshed, UK) was added to each well. […] Subsequently, ASP^+ was added to reach a concentration of 1 μM, and the cells were incubated for 5 minutes in the dark. Imaging was performed with an Axiovert 200 M confocal microscope coupled to a Zeiss LSM 510 scanning device (Carl Zeiss, Oberkochen, Germany) using a Plan-Apochromat 63x/1.40 oil immersion objective. Draq5 was excited at 633 nm and fluorescence was detected using a 650 nm long-pass filter, ASP^+ was excited at 488 nm and detected using a 565/35 nm band-pass filter."}, "OCT3": {"target": "T2, OCT3 (Homo sapiens, UniProt O75751)", "T2 construct": "expressed in transfected cells; host or cells: HEK293 (HEK-OCT3)", "T2 sequence (O75751 1-556)": "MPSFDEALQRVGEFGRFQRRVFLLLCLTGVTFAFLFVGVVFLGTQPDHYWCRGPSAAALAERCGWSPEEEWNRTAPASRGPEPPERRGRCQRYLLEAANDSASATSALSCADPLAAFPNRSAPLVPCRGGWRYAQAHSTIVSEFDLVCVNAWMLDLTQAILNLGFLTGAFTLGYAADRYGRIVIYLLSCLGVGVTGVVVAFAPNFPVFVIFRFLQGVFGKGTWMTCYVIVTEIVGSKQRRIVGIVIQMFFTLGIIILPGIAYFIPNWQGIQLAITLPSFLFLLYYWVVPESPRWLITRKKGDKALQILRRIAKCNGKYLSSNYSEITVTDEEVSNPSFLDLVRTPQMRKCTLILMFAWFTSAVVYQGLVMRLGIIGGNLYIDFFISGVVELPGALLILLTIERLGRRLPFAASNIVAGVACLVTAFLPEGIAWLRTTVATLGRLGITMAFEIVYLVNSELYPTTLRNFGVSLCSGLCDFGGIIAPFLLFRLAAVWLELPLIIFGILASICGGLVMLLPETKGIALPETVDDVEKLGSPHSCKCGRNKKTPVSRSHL", "assay": "Confocal laser scanning microscopy of ASP+ uptake, HEK-OCT3", "assay_type": "cell-based", "settings": "compound 5 15 μM; TPA 200 μM; ASP+ 1 μM", "procedure": "as §1"}},
  "note": "pIC50: −log10 of the molar value. Where two headings read alike, the source gives them in different places.",
  "data": [
    {"smiles": "Cn1c(CCCC(=O)O)nc2cc(N(CCCl)CCCl)ccc21", "note": "[Compound 1, bendamustine, reference compound]", "values": [
      {"measurement": "concentration required for significant induction of p53 expression", "setting": "[1]", "value": "≥ 80", "unit": "µM"},
      {"measurement": "Cmax", "setting": "[2]; converted, ref 51", "value": "~17", "unit": "µM"},
      {"measurement": "Cmax", "setting": "[2]; converted, ref 52", "value": "~31", "unit": "µM"},
      {"measurement": "Cmax", "setting": "[2]; ref 51", "value": 6000, "unit": "ng/mL"},
      {"measurement": "Cmax", "setting": "[2]; ref 52", "value": 11000, "unit": "ng/mL"},
      {"measurement": "pIC50", "setting": "myeloma cells", "value": "~4.00"},
      {"measurement": "pIC50", "setting": "Jurkat cells", "value": "~4.30"}
    ]},
    {"smiles": "Cn1c(CCCC(=O)OCCN2CCOCC2)nc2cc(N(CCCl)CCCl)ccc21", "note": "[Compound 4]", "values": [
      {"measurement": "toxicity on HaCaT cells compared to tumor cells", "setting": "[3]", "value": "preferential toxicity against tumor cells"}
    ]},
    {"smiles": "Cn1c(CCCC(=O)OCCN2CCCC2)nc2cc(N(CCCl)CCCl)ccc21", "note": "[Compound 5]", "values": [
      {"measurement": "toxicity on HaCaT cells compared to tumor cells", "setting": "[3]", "value": "preferential toxicity against tumor cells"},
      {"measurement": "effect on OCT1 activity (ASP+ uptake, imaging)", "setting": "OCT1", "value": "inhibited"},
      {"measurement": "effect on OCT3 activity (ASP+ uptake, imaging)", "setting": "OCT3", "value": "inhibited"}
    ]}
  ]
}
